Legend:
[1] = test system: Usp22 and Usp21 expression in iTreg cells; test: In vitro iTreg cell TGF-β assay, USP mRNA level; type: cell-based; settings: TGF-β added, inhibitor 25 μg/mL
From the text: FIG. 8: TGF-β induces expression of Usp22 and Usp21 in Treg cells. A, Visual representation of Tumor Conditioned Media (TCM) experiments. B, iTreg USP mRNA level under TGF-β induction post-polarization. Usp22: n=18-19; Usp21: n=7-8; Usp7: 4-5. C, iTreg USP mRNA level under TGF-β with and without a TGF-β inhibitor. Usp22: n=3-11; Usp21: n=8-18; Usp7: 3-8. D, Treg FoxP3 mRNA level with TGF-β induction (n=10). B-D, All mRNA values calculated relative to WT untreated iTreg cells. E, TGF-β level in B16, LLC1 and EG7 tumor conditioned media (n=3). F-H, Correlation between USP induction and TGF-β level in the tumor conditioned media. Usp22: n=3-10; Usp21: n=3-8; Usp7: n=3-6. I, TGF-β mRNA level of control or TGF-β shRNA treated B16 cells (n=3). J, mRNA level of Usp22 in sorted itTreg cells from mice injected with shRNA treated B 16 cells (n=4). B, D, and I, Two-tailed unpaired t-test was performed to determine statistical significance. C and E Ordinary one-way Anova with multiple comparisons between groups was performed to determine statistical significance. All data are presented as mean±stdev. NS, not significant. *P<0.05, **P<0.01, ***P<0.001, ****P<0.0001.
Many types of tumors secrete large amounts of TGF-β, which dampens immune responses and promotes metastasis (21, 22). […]

[2] = test system: USP mRNA level in nTreg and iTreg cells; test: In vitro inhibitor assays, USP mRNA level in Treg cells; type: cell-based; settings: 24 hours
Method: FIG. 3: Usp22 and Usp21 are required for FOXP3 stability in nTreg cells under environmental and metabolic stress found in the TME. All mRNA values calculated relative to unchallenged WT Treg cells. A, nTreg USP mRNA level in normoxic (21% O2) verses hypoxic (1% O2) conditions after 24 hours (n=6-13). B, FOXP3 MFI change in 22KO nTreg cells relative to WT nTreg cells after 72 hours in normoxic (21% O2) verses hypoxic (1% O2) conditions (n=5). C, nTreg USP mRNA level after treatment with dMOG for 24 hours (n=6). D, USP mRNA level in nTreg cells after exposure to glucose-restricted (0.5 mM) conditions after 24 hours relative to normal media (11 mM glucose) (n=7-18). E, Relative FOXP3 MFI change in nTreg cells from control and cells cultured under low glucose conditions after 48 hours (n=3). F, nTreg USP mRNA level under amino acid starvation for 24 hours (n=5-9). […]
Along with the competition for glucose, a scarcity of amino acids within tumors may also alter immune cell function (35). […] So, we treated Treg cells with an inhibitor of mitochondrial ATP synthase, Oligomycin A, and measured USP mRNA levels.
All nTreg and iTreg cells were plated as described above DMOG (Sigma Catalog #D3695) was administered to the cells in relevant experiments at 1 mM for 24 hours. […] FOXP3 protein level was assessed via flow cytometry following 48 hours of treatment of inhibitors described above. […]

With `CC(C)(O)c1cc(Nc2cc(Oc3cn(C4CC4)nc3C3CCOCC3)ccn2)ccn1` [LY 3200882] the “TGF-β-induced increase of Usp22 and Usp21 expression” value [1] was “largely diminished”.

For `CC[C@H]1/C=C/C=C/C[C@@H](C)[C@H](O)[C@@](C)(O)C(=O)[C@@H](C)[C@H](O)[C@@H](C)C(=O)[C@@H](C)[C@H](O)[C@@H](C)/C=C/C(=O)O[C@@H]2[C@H](C)[C@H](CC1)O[C@]1(CC[C@H](C)[C@H](C[C@@H](C)O)O1)[C@H]2C` [Oligomycin A], the “USP mRNA level” value ([2]; nTreg cells, 1 μM) was “increased both Usp22 and Usp21, but not Usp7”.

`COC(=O)CNC(=O)C(=O)OC` [dMOG, dimethyloxalylglycine] was tested, and the “Usp22 mRNA level” value ([2]; nTreg and iTreg cells, 1 mM) was “increased Usp22 mRNA level”.

Source: patent publication US20240238274A1, “INHIBITORS OF UBIQUITIN SPECIFIC PEPTIDASE 22 (USP22) AND USES THEREOF FOR TREATING DISEASE AND DISORDERS” (Northwestern University, priority 2021, published 2024)
